# Molecular target: T1, PIP4K2C (Homo sapiens, UniProt Q8TBX8)
# T1 sequence (Q8TBX8 1-421): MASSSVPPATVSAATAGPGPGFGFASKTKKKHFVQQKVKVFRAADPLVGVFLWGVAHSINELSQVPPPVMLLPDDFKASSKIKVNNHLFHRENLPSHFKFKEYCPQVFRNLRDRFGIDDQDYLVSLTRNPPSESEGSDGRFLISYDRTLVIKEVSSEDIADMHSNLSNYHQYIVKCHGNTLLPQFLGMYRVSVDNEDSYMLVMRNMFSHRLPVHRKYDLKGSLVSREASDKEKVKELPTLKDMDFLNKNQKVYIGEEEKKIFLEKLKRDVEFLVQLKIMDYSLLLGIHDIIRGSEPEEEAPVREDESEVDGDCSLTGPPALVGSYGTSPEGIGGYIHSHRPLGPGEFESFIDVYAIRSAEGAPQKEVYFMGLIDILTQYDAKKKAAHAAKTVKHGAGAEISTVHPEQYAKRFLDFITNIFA
# Assay: HiBiT PIP4K2C degradation assay in MOLT-4 cells (endogenous PIP4K2C C-terminally tagged with HiBiT)
# Format: cell-based
# Parameters: untagged in primary human PBMCs and monocyte-derived dendritic cells
# Conditions: 6 hours of incubation time, rather than 24 hours; MOLT-4, top concentration 10 micromolar; read-out: HiBIT-degradation MOLT4 PIP4k2C DC50 (6 hours, marked *)
# In short: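 MOLT-4 cells with endogenous PIP4K2C C-terminally HiBiT-tagged by CRISPR were treated with a 10-point, 3-fold dilution series from 10 micromolar, in duplicate, for 24 h or 6 h at 37 C. Remaining tagged protein read by HiBiT lytic luminescence; DC50 from Hill-equation fit.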
row,Structure (SMILES),DC50
1,"O=C1CCC(n2c(=O)oc3cc(N4CCN(CC5CCN(C(=O)[C@H]6CC[C@H](Nc7ncc(F)c(-c8cccc(-c9ccc[nH]c9=O)c8)n7)CC6)CC5)CC4)ccc32)C(=O)N1 (stereo partly drawn) [Compound 398, trans-3-(6-(4-((1-(4-((5-fluoro-4-(3-(2-oxo-1,2-dihydropyridin-3-yl)phenyl)pyrimidin-2-yl)amino)cyclohexane-1-carbonyl)piperidin-4-yl)methyl)piperazin-1-yl)-2-oxobenzo[d]oxazol-3 (2H)-yl)piperidine-2,6-dione]",< 500 nM
2,"Cc1ccc(=O)n(-c2cccc(-c3nc(N[C@H]4CC[C@H](NC(=O)[C@H]5CC[C@H](N6CCC(c7ccc(NC8CCC(=O)NC8=O)cc7F)CC6)CC5)CC4)ncc3F)c2)c1 (stereo partly drawn) [Compound 574, trans-(1r,4R)-4-(4-(4-((2,6-dioxopiperidin-3-yl)amino)-2-fluorophenyl)piperidin-1-yl)-N-((1r,4R)-4-((5-fluoro-4-(3-(5-methyl-2-oxopyridin-1 (2H)-yl)phenyl)pyrimidin-2-yl)amino)cyclohexyl)cyclohexane-1-carboxamide]",< 500 nM
3,"O=C1CCC(Nc2ccc(N3CCN([C@H]4CC[C@H](NC(=O)[C@H]5CC[C@H](Nc6ncc(F)c(-c7cccc(C(=O)N8CC[C@H](O)C8)c7)n6)CC5)CC4)CC3)c(F)c2)C(=O)N1 (stereo partly drawn) [Compound 509, trans-N-(trans-4-(4-(4-((2,6-dioxopiperidin-3-yl)amino)-2-fluorophenyl)piperazin-1-yl)cyclohexyl)-4-((5-fluoro-4-(3-((S)-3-hydroxypyrrolidine-1-carbonyl)phenyl)pyrimidin-2-yl)amino)cyclohexane-1-carboxamide]",< 500 nM
4,"O=C1CC[C@@H](Nc2ccc(C3CCN(CC4CCN(C(=O)[C@H]5CC[C@H](Nc6ncc(F)c(-c7cccc(-c8ccc[nH]c8=O)c7)n6)CC5)CC4)CC3)c(F)c2)C(=O)N1 (single isomer, unassigned) [Compound 421]",< 500 nM
5,"O=C1CC[C@@H](Nc2ccc(N3CCN([C@H]4CC[C@H](C(=O)N[C@H]5CC[C@H](Nc6ncc(F)c(-c7cccc(N8CCCOC8=O)c7)n6)CC5)CC4)CC3)c(F)c2)C(=O)N1 (single isomer, unassigned) [Compound 461]",< 500 nM
6,"O=C1CCC(Nc2ccc(N3CCN(CC4(F)CCN(C(=O)[C@H]5CC[C@H](Nc6ncc(F)c(-c7cccc(C8CC8)c7)n6)CC5)CC4)CC3)c(F)c2)C(=O)N1 (stereo partly drawn) [Compound 529, trans-3-((4-(4-((1-((1r,4r)-4-((4-(3-cyclopropylphenyl)-5-fluoropyrimidin-2-yl)amino)cyclohexane-1-carbonyl)-4-fluoropiperidin-4-yl)methyl)piperazin-1-yl)-3-fluorophenyl)amino)piperidine-2,6-dione]",< 500 nM
7,"O=C1CC[C@@H](Nc2ccc(C3CCN([C@H]4CC[C@H](C(=O)N[C@H]5CC[C@H](Nc6ncc(F)c(-c7cccc(N8CCCCC8=O)c7)n6)CC5)CC4)CC3)c(F)c2)C(=O)N1 (single isomer, unassigned) [Compound 593]",< 500 nM
8,"O=C1CC[C@H](Nc2ccc(N3CCN([C@H]4CC[C@H](NC(=O)[C@H]5CC[C@H](Nc6ncc(F)c(-c7cccc(-c8ccc[nH]c8=O)c7)n6)CC5)CC4)CC3)c(F)c2)C(=O)N1 (single isomer, unassigned) [Compound 441]",< 500 nM
9,"O=C1CCC(Nc2ccc(N3CCC(N4CCC(CC(=O)N[C@H]5CC[C@H](Nc6ncc(F)c(-c7cccc(-n8ccccc8=O)c7)n6)CC5)CC4)CC3)c(F)c2)C(=O)N1 (stereo partly drawn) [Compound 395, trans-2-(1′-(4-((2,6-dioxopiperidin-3-yl)amino)-2-fluorophenyl)-[1,4′-bipiperidin]-4-yl)-N-((1r,4r)-4-((5-fluoro-4-(3-(2-oxopyridin-1(2H)-yl)phenyl)pyrimidin-2-yl)amino)cyclohexyl)acetamide]",< 500 nM

# Same assay, conditions: 24 hours incubation, MOLT-4, top concentration 10 micromolar; read-out: HiBIT-degradation MOLT4 PIP4k2C 24 hours DC50
row,Structure (SMILES),DC50
1,"O=C1CCC(N2Cc3cc(OC4CCN(C(=O)CC5CCN(C(=O)[C@H]6CCC[C@@H](Nc7ncc(Cl)c(-c8cccc(-c9ccccc9)c8)n7)C6)CC5)CC4)ccc3C2=O)C(=O)N1 (relative stereo) [Compound 81, cis-3-(5-((1-(2-(1-(3-((4-([1,1′-biphenyl]-3-yl)-5-chloropyrimidin-2-yl)amino)cyclohexane-1-carbonyl)piperidin-4-yl)acetyl)piperidin-4-yl)oxy)-1-oxoisoindolin-2-yl)piperidine-2,6-dione]",< 500 nM
2,"O=C1CCC(Nc2ccc(C3CCN(C4CCN(CCC(=O)N5CCC(Nc6ncc(Cl)c(-c7cccc(-c8ccccc8)c7)n6)CC5)CC4)CC3)cc2)C(=O)N1 (stereo not shown) [Compound 48, 3-((4-(1′-(3-(4-((4-([1,1′-biphenyl]-3-yl)-5-chloropyrimidin-2-yl)amino)piperidin-1-yl)-3-oxopropyl)-[1,4′-bipiperidin]-4-yl)phenyl)amino)piperidine-2,6-dione]",< 500 nM
3,"O=C1CCC(Nc2ccc(C3CCN(CCC4CCN(C(=O)[C@H]5CC[C@H](Nc6ncc(F)c(-c7cccc(-n8ccccc8=O)c7)n6)CC5)CC4)CC3)c(F)c2)C(=O)N1 (stereo partly drawn) [Compound 322, trans-3-((3-fluoro-4-(1-(2-(1-((1r,4r)-4-((5-fluoro-4-(3-(2-oxopyridin-1(2H)-yl)phenyl)pyrimidin-2-yl)amino)cyclohexane-1-carbonyl)piperidin-4-yl)ethyl)piperidin-4-yl)phenyl)amino)piperidine-2,6-dione]",< 500 nM
4,"O=C(COc1cccc2c1C(=O)N(C1CCC(=O)NC1=O)C2=O)NCCCCCCCCCC(=O)N1CCC(Nc2ncc(Cl)c(-c3cccc(-c4ccccc4)c3)n2)CC1 (stereo not shown) [Compound 66, N-(10-(4-((4-([1,1′-biphenyl]-3-yl)-5-chloropyrimidin-2-yl)amino)piperidin-1-yl)-10-oxodecyl)-2-((2-(2,6-dioxopiperidin-3-yl)-1,3-dioxoisoindolin-4-yl)oxy)acetamide]",500 to 1000 nM
5,"O=C1CCC(N2Cc3cc(OC4CCN(C5CCN(CCC(=O)N6CCC(Nc7ncc(Cl)c(-c8cccc(-c9ccccc9)c8)n7)CC6)CC5)CC4)ccc3C2=O)C(=O)N1 (stereo not shown) [Compound 90, 3-(5-((1′-(3-(4-((4-([1,1′-biphenyl]-3-yl)-5-chloropyrimidin-2-yl)amino)piperidin-1-yl)-3-oxopropyl)-[1,4′-bipiperidin]-4-yl)oxy)-1-oxoisoindolin-2-yl)piperidine-2,6-dione]",< 500 nM

# Same assay, conditions: read-out: HiBIT-degradation MOLT4 PIP4k2C DC50 (6 hours, marked *); 6 hours of incubation time, rather than 24 hours; MOLT-4, top concentration 10 micromolar
row,Structure (SMILES),DC50
1,"O=C1CCC(Nc2ccc(C3CCN(CCC4(O)CCN(C(=O)O[C@H]5CC[C@H](Nc6ncc(F)c(-c7cccc(-n8ccccc8=O)c7)n6)CC5)CC4)CC3)c(F)c2)C(=O)N1 (stereo partly drawn) [Compound 641, trans-4-((5-fluoro-4-(3-(2-oxopyridin-1 (2H)-yl)phenyl)pyrimidin-2-yl)amino)cyclohexyl 4-(2-(4-(4-((2,6-dioxopiperidin-3-yl)amino)-2-fluorophenyl)piperidin-1-yl)ethyl)-4-hydroxypiperidine-1-carboxylate]",< 500 nM
2,"O=C1CCC(Nc2ccc(N3CCC(N4CC5(CN(C(=O)O[C@H]6CC[C@H](Nc7ncc(F)c(-c8cccc(-n9ccccc9=O)c8)n7)CC6)C5)C4)CC3)c(F)c2)C(=O)N1 (stereo partly drawn) [Compound 652, (trans)-4-((5-fluoro-4-(3-(2-oxopyridin-1 (2H)-yl)phenyl)pyrimidin-2-yl)amino)cyclohexyl 6-(1-(4-((2,6-dioxopiperidin-3-yl)amino)-2-fluorophenyl)piperidin-4-yl)-2,6-diazaspiro[3.3]heptane-2-carboxylate]",< 500 nM

# — patent publication US20260355196A1, “INHIBITORS AND DEGRADERS OF PIP4K PROTEIN” (Larkspur Biosciences, Inc., priority 2023, published 2026)
